# From patent publication US9522888B2, “Substituted bicyclic compounds” (BRISTOL-MYERS SQUIBB COMPANY, priority 2014, dated 2016)
# pEC50, pIC50: −log10 of the molar value.
# Legend:
# [1] = biological target: S1P3 (membranes prepared from EDG3-Gal5-bla HEK293T cells) (Homo sapiens (Human), UniProt Q99500); assay: Receptor [35S] GTPγS binding assay (S1P3 GTPγS); format: biochemical; conditions: phosphate examples; read-out: S1P3 GTPγS
# Outline: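 Membranes (3 μg protein/well) from S1P1/CHO cells or EDG3-Gal5-bla HEK293T cells (S1P3) were incubated 45 min at room temperature with 0.2 nM final [35S]GTPγS in HEPES pH 7.5 buffer with 10 μM GDP, MgCl2 and saponin. Bound label counted after filtration; EC50 from 11-point, 3-fold dilutions.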
# [2] = biological target: human S1P1 (Homo sapiens (Human), UniProt P21453); assay: S1P1 binding assay (33P-S1P radioligand competition, CHO cell membranes); conditions: phosphate examples; read-out: S1P1 Binding
# Outline: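 Radioligand is 33P-S1P, competing for membranes from human S1P1-expressing CHO cells. Membranes resuspended in 50 mM HEPES pH 7.5, 100 mM NaCl, 1 mM MgCl2, 2 mM EDTA.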
# [3] = biological target: hS1P1/CHO cells (Homo sapiens (Human), UniProt P21453); assay: hS1P1 ERK phosphorylation (S1P1 pERK); format: cell-based; conditions: phosphate examples
# Outline: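 CHO cells expressing human S1P1, serum-starved 2 h, exposed to compound in HBSS/20 mM HEPES for 7 min at 37° C. Lysates assayed for phospho-ERK by SureFire kit; response given as % activation relative to 10 μM S1P.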
# [4] = biological target: S1P1 (membranes prepared from S1P1/CHO cells) (Homo sapiens (Human), UniProt P21453); assay: Receptor [35S] GTPγS binding assay (S1P1 GTPγS); format: biochemical; conditions: phosphate examples; read-out: S1P1 GTPγS
# Outline: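 Membranes from S1P1-expressing CHO cells (3 μg protein/well) incubated with compound (11-point, 3-fold dilution) and 0.2 nM final [35S]GTPγS, 45 min at room temperature. Assay buffer: 20 mM HEPES pH 7.5, 10 mM MgCl2, 150 mM NaCl, 10 μM GDP, 0.1% fatty-acid-free BSA, 10 μg/ml saponin. Filter-bound radioactivity counted by scintillation; EC50 derived.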
# S1P3 (membranes prepared from EDG3-Gal5-bla HEK293T cells), sequence (Q99500 whole entry): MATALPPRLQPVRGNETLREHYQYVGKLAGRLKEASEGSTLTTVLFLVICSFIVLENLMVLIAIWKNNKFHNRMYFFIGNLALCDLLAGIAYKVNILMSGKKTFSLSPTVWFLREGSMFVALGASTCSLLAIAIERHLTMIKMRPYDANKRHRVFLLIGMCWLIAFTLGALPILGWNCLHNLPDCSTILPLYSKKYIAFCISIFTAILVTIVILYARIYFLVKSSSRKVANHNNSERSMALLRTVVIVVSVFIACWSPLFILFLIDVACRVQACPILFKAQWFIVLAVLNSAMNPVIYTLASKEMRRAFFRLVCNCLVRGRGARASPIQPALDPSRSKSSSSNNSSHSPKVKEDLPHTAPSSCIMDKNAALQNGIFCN
# hS1P1/CHO cells, sequence (P21453 whole entry): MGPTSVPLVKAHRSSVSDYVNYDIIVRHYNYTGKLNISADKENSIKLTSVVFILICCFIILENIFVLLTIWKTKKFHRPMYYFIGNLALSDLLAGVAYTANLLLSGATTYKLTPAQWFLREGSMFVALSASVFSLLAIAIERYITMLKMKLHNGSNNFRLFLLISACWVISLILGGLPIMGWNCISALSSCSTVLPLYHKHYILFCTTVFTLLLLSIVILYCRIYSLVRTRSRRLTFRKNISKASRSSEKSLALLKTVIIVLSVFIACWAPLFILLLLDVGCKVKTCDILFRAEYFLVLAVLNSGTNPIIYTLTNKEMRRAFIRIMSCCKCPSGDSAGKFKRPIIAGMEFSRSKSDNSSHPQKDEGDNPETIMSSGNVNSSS
# S1P1 (membranes prepared from S1P1/CHO cells), sequence (P21453 whole entry): as above
# human S1P1, sequence (P21453 whole entry): as above
SMILES,pEC50 [1],pIC50 [2],pEC50 [3],pEC50 [4]
CC(C)c1cccc(OC[C@@H]2CCc3cc([C@H]4CC[C@](N)(COP(=O)(O)O)C4)ccc3C2)c1 [compound 478],< 6.20,7.00 to 8.00,7.00 to 8.00,7.00 to 8.00
CC(C)c1ccc(OC[C@@H]2CCc3cc([C@H]4CC[C@](N)(COP(=O)(O)O)C4)ccc3C2)cc1 [compound 479],< 6.20,6.00 to 7.00,7.00 to 8.00,7.00 to 8.00
COCc1cccc(OC[C@@H]2CCc3cc([C@H]4CC[C@](N)(COP(=O)(O)O)C4)ccc3C2)c1 [compound 480],< 6.20,5.00 to 6.00,6.00 to 7.00,> 8.00
COc1cccc(COC[C@H]2CCc3cc([C@H]4CC[C@](N)(COP(=O)(O)O)C4)ccc3C2)c1 [compound 481],< 6.20,> 8.00,> 8.00,> 8.00
COc1ccc(F)c(OC[C@@H]2CCc3cc([C@H]4CC[C@](N)(COP(=O)(O)O)C4)ccc3C2)c1 [compound 484],< 6.20,6.00 to 7.00,7.00 to 8.00,7.00 to 8.00
COc1cc(OC[C@@H]2CCc3cc([C@H]4CC[C@](N)(COP(=O)(O)O)C4)ccc3C2)ccc1F [compound 485],< 6.20,7.00 to 8.00,7.00 to 8.00,7.00 to 8.00
CN(C)Cc1cccc(OC[C@@H]2CCc3cc([C@H]4CC[C@](N)(COP(=O)(O)O)C4)ccc3C2)c1 [compound 490],< 6.20,> 8.00,7.00 to 8.00,6.00 to 7.00
COc1ccc(OC[C@@H]2CCc3cc([C@H]4CC[C@](N)(COP(=O)(O)O)C4)ccc3C2)cc1OC [compound 491],< 6.20,> 8.00,7.00 to 8.00,> 8.00
COc1cc(OC[C@@H]2CCc3cc([C@H]4CC[C@](N)(COP(=O)(O)O)C4)ccc3C2)ccc1Cl [compound 493],< 6.20,> 8.00,7.00 to 8.00,> 8.00
COc1ccc(OC[C@@H]2CCc3cc([C@H]4CC[C@](N)(COP(=O)(O)O)C4)ccc3C2)c(F)c1F [compound 494],< 6.20,7.00 to 8.00,7.00 to 8.00,7.00 to 8.00
CN(C)C(=O)c1cccc(OC[C@@H]2CCc3cc([C@H]4CC[C@](N)(COP(=O)(O)O)C4)ccc3C2)c1 [compound 495],< 6.20,7.00 to 8.00,> 8.00,7.00 to 8.00
Cn1nc(OC[C@@H]2CCc3cc([C@H]4CC[C@](N)(COP(=O)(O)O)C4)ccc3C2)cc1C(F)(F)F [compound 496],< 6.20,> 8.00,> 8.00,> 8.00
N[C@]1(COP(=O)(O)O)CC[C@H](c2ccc3c(c2)CC[C@@H](COc2cccc(OC(F)(F)F)c2)C3)C1 [compound 497],< 6.20,7.00 to 8.00,> 8.00,> 8.00
COc1cc(OC[C@@H]2CCc3cc([C@H]4CC[C@](N)(COP(=O)(O)O)C4)ccc3C2)ccc1C(C)(C)C [compound 498],< 6.20,7.00 to 8.00,7.00 to 8.00,6.00 to 7.00
N[C@]1(COP(=O)(O)O)CC[C@H](c2ccc3c(c2)CC[C@@H](COCc2ccc(C(F)(F)F)s2)C3)C1 [compound 499],< 6.20,> 8.00,7.00 to 8.00,7.00 to 8.00

# Next, values leading:
pEC50 [1],pIC50 [2],pEC50 [3],pEC50 [4],SMILES
< 6.20,> 8.00,> 8.00,7.00 to 8.00,COc1ccccc1OC[C@@H]1CCc2cc([C@H]3CC[C@](N)(COP(=O)(O)O)C3)ccc2C1 [compound 475]
< 6.20,7.00 to 8.00,7.00 to 8.00,7.00 to 8.00,COc1ccc(OC[C@@H]2CCc3cc([C@H]4CC[C@](N)(COP(=O)(O)O)C4)ccc3C2)cc1 [compound 476]
< 6.20,> 8.00,> 8.00,7.00 to 8.00,COc1cncc(OC[C@@H]2CCc3cc([C@H]4CC[C@](N)(COP(=O)(O)O)C4)ccc3C2)c1 [compound 477]
< 6.20,6.00 to 7.00,7.00 to 8.00,7.00 to 8.00,COc1ccc(COC[C@@H]2CCc3cc([C@H]4CC[C@](N)(COP(=O)(O)O)C4)ccc3C2)cc1 [compound 482]
< 6.20,> 8.00,> 8.00,7.00 to 8.00,CCc1ccc(COC[C@@H]2CCc3cc([C@H]4CC[C@](N)(COP(=O)(O)O)C4)ccc3C2)s1 [compound 489]
< 6.20,> 8.00,> 8.00,> 8.00,CCCSC[C@@H]1CCc2cc([C@H]3CC[C@](N)(COP(=O)(O)O)C3)ccc2C1 [compound 503]
< 6.20,> 8.00,> 8.00,7.00 to 8.00,CC(C)CSC[C@@H]1CCc2cc([C@H]3CC[C@](N)(COP(=O)(O)O)C3)ccc2C1 [compound 504]
< 6.20,7.00 to 8.00,7.00 to 8.00,7.00 to 8.00,CCCCSC[C@H]1CCc2cc([C@@H]3CC[C@](N)(COP(=O)(O)O)C3)ccc2C1 [compound 505]
< 6.20,> 8.00,> 8.00,> 8.00,CCCCSC[C@@H]1CCc2cc([C@@H]3CC[C@](N)(COP(=O)(O)O)C3)ccc2C1 [compound 506]
< 6.20,6.00 to 7.00,7.00 to 8.00,6.00 to 7.00,N[C@]1(COP(=O)(O)O)CC[C@@H](c2ccc3c(c2)CC[C@H](CSc2ccccc2)C3)C1 [compound 507]
< 6.20,7.00 to 8.00,7.00 to 8.00,6.00 to 7.00,N[C@]1(COP(=O)(O)O)CC[C@@H](c2ccc3c(c2)CC[C@@H](CSc2ccccc2)C3)C1 [compound 508]
< 6.20,7.00 to 8.00,> 8.00,7.00 to 8.00,CC(C)CSC[C@H]1CCc2cc([C@H]3CC[C@](N)(COP(=O)(O)O)C3)ccc2C1 [compound 509]
< 6.20,> 8.00,> 8.00,7.00 to 8.00,CC(C)CCSC[C@@H]1CCc2cc([C@H]3CC[C@](N)(COP(=O)(O)O)C3)ccc2C1 [compound 510]
< 6.20,> 8.00,> 8.00,7.00 to 8.00,CC(C)CCSC[C@H]1CCc2cc([C@H]3CC[C@](N)(COP(=O)(O)O)C3)ccc2C1 [compound 511]
< 6.20,> 8.00,7.00 to 8.00,> 8.00,CCCCCSC[C@H]1CCc2cc([C@H]3CC[C@](N)(COP(=O)(O)O)C3)ccc2C1 [compound 512]
< 6.20,> 8.00,> 8.00,7.00 to 8.00,CCCCCSC[C@@H]1CCc2cc([C@H]3CC[C@](N)(COP(=O)(O)O)C3)ccc2C1 [compound 513]
< 6.20,> 8.00,7.00 to 8.00,7.00 to 8.00,CC(C)(C)CSC[C@H]1CCc2cc([C@H]3CC[C@](N)(COP(=O)(O)O)C3)ccc2C1 [compound 514]
< 6.20,7.00 to 8.00,> 8.00,7.00 to 8.00,CC(C)(C)CSC[C@@H]1CCc2cc([C@H]3CC[C@](N)(COP(=O)(O)O)C3)ccc2C1 [compound 515]
